ChEMBL document CHEMBL4680151, “Proton pump inhibitors selectively suppress MLL rearranged leukemia cells via disrupting MLL1-WDR5 protein-protein interaction” (Eur J Med Chem, 2020)
pIC50: −log10 of the molar value. Active and inactive are the calls of the source. No cut-off for these calls is given here.

Key:
[1] = target: Histone-lysine N-methyltransferase 2A/WDR5 (Homo sapiens, UniProt P61964); assay: Inhibition of MLL1-WDR5 interaction […] assessed as reduction in MLL1 binding to WDR5 WIN site by 5-FAM probe based fluorescence polarization assay
[2] = target: T1, Histone-lysine N-methyltransferase 2A/WDR5 (Homo sapiens) (UniProt P61964+Q03164); assay: Inhibition of MLL1-WDR5 interaction in human MV4-11 cells assessed as reduction in H3K4me2 expression at 5 uM incubated for 6 days by Western blot analysis; type: cell-based; conditions: time 6.0 day
[3] = target: T1, Histone-lysine N-methyltransferase 2A/WDR5 (Homo sapiens); assay: Inhibition of MLL1-WDR5 interaction in human MV4-11 cells assessed as reduction in H3K4me1 expression at 5 uM incubated for 6 days by Western blot analysis; type: cell-based; conditions: time 6.0 day
[4] = target: T1, Histone-lysine N-methyltransferase 2A/WDR5 (Homo sapiens); assay: Inhibition of MLL1-WDR5 interaction in human MV4-11 cells assessed as downregulation of Meis1 gene expression at 5 uM incubated for 6 days by qRT-PCR analysis; type: cell-based; conditions: time 6.0 day
[5] = target: T1, Histone-lysine N-methyltransferase 2A/WDR5 (Homo sapiens); assay: Inhibition of MLL1-WDR5 interaction in human MV4-11 cells assessed as downregulation of Hoxa9 gene expression at 5 uM incubated for 6 days by qRT-PCR analysis; type: cell-based; conditions: time 6.0 day
MV4-11 [6] = assay: Antiproliferative activity against human MV4-11 cells harboring MLL1-AF4; type: functional
MOLM-13 = assay: Antiproliferative activity against human MOLM-13 cells harboring MLL1-AF9; type: functional
K562 = assay: Antiproliferative activity against human K562 cells harboring MLL1; type: functional
[7] = Cytotoxicity against human L02 cells; type: cell-based
[8] = Cytotoxicity against HUVEC cells; type: cell-based; conditions: human
MV4-11 [9] = assay: Induction of apoptosis in human MV4-11 cells harboring MLL1-AF4 assessed as viable cells at 25 uM incubated for 72 hrs by annexin V-FITC and propidium iodide staining based assay (reference value: 93.75 %); type: functional; conditions: read-out: Activity
MV4-11 [10] = assay: Induction of apoptosis in human MV4-11 cells harboring MLL1-AF4 assessed as late apoptotic cells at 10 uM incubated for 72 hrs by annexin V-FITC and propidium iodide staining based assay (reference value: 1.85 %); type: functional
[11] = target: T1, Histone-lysine N-methyltransferase 2A/WDR5 (Homo sapiens); assay: Inhibition of MLL1-WDR5 interaction in human MV4-11 cells assessed as downregulation of Meis1 gene expression incubated for 6 days by qRT-PCR analysis; type: cell-based; conditions: dose 1-20 µM, time 6.0 day
MV4-11 [12] = assay: Induction of apoptosis in human MV4-11 cells harboring MLL1-AF4 assessed as viable cells at 10 uM incubated for 72 hrs by annexin V-FITC and propidium iodide staining based assay (reference value: 93.75 %); type: functional; conditions: read-out: Activity
MV4-11 [13] = assay: Induction of apoptosis in human MV4-11 cells harboring MLL1-AF4 assessed as late apoptotic cells at 25 uM incubated for 72 hrs by annexin V-FITC and propidium iodide staining based assay (reference value: 1.85 %); type: functional
MV4-11 [14] = assay: Induction of apoptosis in human MV4-11 cells harboring MLL1-AF4 assessed as early apoptotic cells at 5 uM incubated for 72 hrs by annexin V-FITC and propidium iodide staining based assay (reference value: 4.35 %); type: functional
[15] = target: T1, Histone-lysine N-methyltransferase 2A/WDR5 (Homo sapiens); assay: Inhibition of MLL1-WDR5 interaction in human MV4-11 cells assessed as downregulation of Hoxa9 gene expression incubated for 6 days by qRT-PCR analysis; type: cell-based; conditions: dose 1-20 µM, time 6.0 day
MV4-11 [16] = assay: Induction of apoptosis in human MV4-11 cells harboring MLL1-AF4 assessed as necrotic cells at 25 uM incubated for 72 hrs by annexin V-FITC and propidium iodide staining based assay (reference value: 0.05 %); type: functional
[17] = target: T1, Histone-lysine N-methyltransferase 2A/WDR5 (Homo sapiens); assay: Inhibition of MLL1-WDR5 interaction in human MV4-11 cells assessed as downregulation of Meis1 gene expression at 10 uM incubated for 6 days by qRT-PCR analysis relative to control; type: cell-based; conditions: time 6.0 day
[18] = target: T1, Histone-lysine N-methyltransferase 2A/WDR5 (Homo sapiens); assay: Inhibition of MLL1-WDR5 interaction in human MV4-11 cells assessed as reduction in H3K4me2 expression incubated for 6 days by Western blot analysis; type: cell-based; conditions: dose 0.1-20 µM, time 6.0 day
[19] = target: T1, Histone-lysine N-methyltransferase 2A/WDR5 (Homo sapiens); assay: Inhibition of MLL1-WDR5 interaction in human MV4-11 cells assessed as downregulation of Hoxa9 gene expression at 10 uM incubated for 6 days by qRT-PCR analysis relative to control; type: cell-based; conditions: time 6.0 day
MV4-11 [20] = assay: Induction of apoptosis in human MV4-11 cells harboring MLL1-AF4 assessed as necrotic cells at 10 uM incubated for 72 hrs by annexin V-FITC and propidium iodide staining based assay (reference value: 0.05 %); type: functional
MV4-11 [21] = assay: Induction of apoptosis in human MV4-11 cells harboring MLL1-AF4 assessed as early apoptotic cells at 10 uM incubated for 72 hrs by annexin V-FITC and propidium iodide staining based assay (reference value: 4.35 %); type: functional
[22] = target: T1, Histone-lysine N-methyltransferase 2A/WDR5 (Homo sapiens); assay: Inhibition of MLL1-WDR5 interaction in human MV4-11 cells assessed as reduction in H3K4me1 expression incubated for 6 days by Western blot analysis; type: cell-based; conditions: dose 0.1-20 µM, time 6.0 day
MV4-11 [23] = assay: Induction of apoptosis in human MV4-11 cells harboring MLL1-AF4 incubated for 72 hrs by annexin V-FITC and propidium iodide staining based assay; type: functional, cell-based; conditions: dose 5-25 µM
MV4-11 [24] = assay: Induction of apoptosis in human MV4-11 cells harboring MLL1-AF4 assessed as early apoptotic cells at 25 uM incubated for 72 hrs by annexin V-FITC and propidium iodide staining based assay (reference value: 4.35 %); type: functional
MV4-11 [25] = assay: Induction of apoptosis in human MV4-11 cells harboring MLL1-AF4 assessed as necrotic cells at 5 uM incubated for 72 hrs by annexin V-FITC and propidium iodide staining based assay (reference value: 0.05 %); type: functional
MV4-11 [26] = assay: Induction of apoptosis in human MV4-11 cells harboring MLL1-AF4 assessed as late apoptotic cells at 5 uM incubated for 72 hrs by annexin V-FITC and propidium iodide staining based assay (reference value: 1.85 %); type: functional
MV4-11 [27] = assay: Induction of apoptosis in human MV4-11 cells harboring MLL1-AF4 assessed as viable cells at 5 uM incubated for 72 hrs by annexin V-FITC and propidium iodide staining based assay (reference value: 93.75 %); type: functional; conditions: read-out: Activity

SMILES | pIC50 [1] | GI50 (MV4-11 [6]) | GI50 (MOLM-13) | GI50 (K562) | GI50 [7] | GI50 [8] | also measured
Cc1ccccc1C[S+]([O-])c1nc2ccccc2[nH]1 (stereo unspecified) | < 4.00 |  |  |  |  |  | 
COCCCOc1ccnc(CS(=O)(=O)c2nc3cc(OC(F)F)ccc3[nH]2)c1 | < 4.00 |  |  |  |  |  | 
Cc1c(F)c(N)cc(C(=O)Nc2cc(-c3ccc(N)cc3)ccc2N2CCN(C)CC2)c1Cl |  |  |  |  |  |  | inhibition [2]: Active; inhibition [3]: Active; inhibition [4]: Active; inhibition [5]: Active
Cc1c(OCC(F)(F)F)ccnc1C[S@@+]([O-])c1nc2ccccc2[nH]1 [DEXLANSOPRAZOLE] | 5.24 | 25.1 µM | 27.2 µM | > 100 µM | > 100 µM | > 100 µM | 
Cc1c(OCC(F)(F)F)ccnc1C[S+]([O-])c1nc2ccccc2[nH]1 (stereo unspecified) [LANSOPRAZOLE] | 5.23 | 21.1 µM | 30.1 µM | > 100 µM | > 100 µM | > 100 µM | 
COCCCOc1ccnc(C[S+]([O-])c2nc3ccccc3[nH]2)c1C (stereo unspecified) [RABEPRAZOLE] | 6.31 | 14.1 µM | 17.5 µM | > 100 µM | > 100 µM | > 100 µM | viability at 25 µM (MV4-11 [9]): 76.3%; Activity (MV4-11 [10]): 8.7%; inhibition [11]: Dose-dependent effect; viability at 10 µM (MV4-11 [12]): 86.2%; Activity (MV4-11 [13]): 16.5%; Activity (MV4-11 [14]): 7.75%; inhibition [15]: Dose-dependent effect; Activity (MV4-11 [16]): 0.8%; inhibition [17]: 50%; inhibition [18]: Dose-dependent effect; inhibition [19]: 50%; Activity (MV4-11 [20]): 0.3%; Activity (MV4-11 [21]): 4.75%; inhibition [22]: Dose-dependent effect; Activity (MV4-11 [23]): Dose-dependent effect; Activity (MV4-11 [24]): 6.4%; Activity (MV4-11 [25]): 0.2%; Activity (MV4-11 [26]): 5.65%; viability at 5 µM (MV4-11 [27]): 86.4%

Second part, led by results:

pIC50 [1] | SMILES | GI50 (MV4-11 [6]) | GI50 (MOLM-13) | GI50 (K562) | GI50 [7] | GI50 [8] | also measured
5.96 | COc1c(C)cnc(C[S+]([O-])c2nc3ccccc3[nH]2)c1C (stereo unspecified) |  |  |  |  |  | 
5.77 | COCCCOc1ccnc(C[S+]([O-])c2nc3cc(OC(F)F)ccc3[nH]2)c1C (stereo unspecified) |  |  |  |  |  | 
< 4.00 | COc1c(C)cnc(C[S+]([O-])c2nc3ccccc3s2)c1C (stereo unspecified) |  |  |  |  |  | 
< 4.00 | Cc1cccnc1C[S+]([O-])c1nc2ccccc2[nH]1 (stereo unspecified) |  |  |  |  |  | 
< 4.00 | COc1c(C)cnc(C[S+]([O-])c2nc3ccccc3o2)c1C (stereo unspecified) |  |  |  |  |  | 
< 4.00 | COc1c(C)cnc(CSc2nc3ccccc3[nH]2)c1C |  |  |  |  |  | 
5.74 | COc1ccc2nc([S@@+]([O-])Cc3ncc(C)c(OC)c3C)[nH]c2c1 [ESOMEPRAZOLE] | 47.6 µM | 32 µM | > 100 µM | > 100 µM | > 100 µM | 
5.77 | COc1ccc2[nH]c([S+]([O-])Cc3ncc(C)c(OC)c3C)nc2c1 (stereo unspecified) [OMEPRAZOLE] | 37.3 µM | 34.1 µM | > 100 µM | > 100 µM | > 100 µM | 
